Values after ≈ are worked out from the molar mass of the structure shown.
Tests used:
[1] = Mixture ratios of the two components under various pH values; assay type: physicochemical; settings: pH 1.0, 0.1 N hydrochloric acid
Experimental: The FR-900482 substance was dissolved in various buffer solutions so as to make its concentration to 10 mg/ml. After allowing to stand for 2 hours, 4 μl of each of these solutions was subjected to silica gel thin layer chromatography using a mixture of chloroform and methanol (4:1, v/v) as a developing solvent. After developing, the mixture ratios of the two components were calculated by a chromatoscanner at 254 nm, the results of which are shown in the following.

[2] = system: Lymphocytic leukemia P388; experiment: Antitumor activity against lymphocytic leukemia P388 in mice (Test 1); assay type: in vivo, mice (BDF1); settings: for T/C: mean survival time treated/control
Experimental: The antitumor activity of FR-900482 substance was determined in experimental tumor system in mice.
Lymphocytic leukemia P388 was implanted intraperitoneally into BDF1 mice at an inoculum size of 1×10^6 cells per mouse. Twenty-four hours after the implantation of tumor cells, graded doses of the FR-900482 substance were administered to mice intraperitoneally. Treatments were once a day on day 1, 2, 3 and 4 after the tumor inoculation. Control animals received intraperitoneal doses of physiological saline solution. The injection volume was 0.2 ml in all experiments. Six mice were used for each experimental group.
Antitumor activity was evaluated by the mean survival time of a group of mice and also expressed by the T/C % value (mean survival time of treated group/mean survival time of control group, ×100).

[3] = system: Bacillus subtilis ATCC 6633; experiment: Antimicrobial activity, serial broth dilution (Test 2), Bacillus subtilis; assay type: cell-based; settings: ATCC6633, overnight incubation at 37° C.
Experimental: Antimicrobial activity of the FR-900482 substance against some bacteria was determined by a serial broth dilution method in bouillon media for bacteria. Minimum inhibitory concentrations (MIC) were expressed in terms of μg/ml after overnight incubation at 37° C.

SMILES: NC(=O)OCC1c2c(O)cc(C=O)cc2N2CC3NC3C1(O)O2 (centres unmarked) [FR-900482 substance, 4-Formyl-6,9-dihydroxy-14-oxa-1,11-diazatetracyclo[7.4.1.0^2,7.0^10,12]tetradeca-2,4,6-trien-8-ylmethyl carbamate]
- Ratios of the two components [1]: single component
- Mean Survival time ([2]; 1.0 mg/kg i.p., days 1-4): 13.0 days
- T/C ([2]; 1.0 mg/kg i.p., days 1-4): 118%
- Mean Survival time ([2]; 3.2 mg/kg i.p., days 1-4): 14.0 days
- T/C ([2]; 3.2 mg/kg i.p., days 1-4): 127%
- Mean Survival time ([2]; 5.6 mg/kg i.p., days 1-4): 16.0 days
- T/C ([2]; 5.6 mg/kg i.p., days 1-4): 145%
- Mean Survival time ([2]; 10 mg/kg i.p., days 1-4): 24.5 days
- T/C ([2]; 10 mg/kg i.p., days 1-4): 223%
- Mean Survival time ([2]; 18 mg/kg i.p., days 1-4): 29.0 days
- T/C ([2]; 18 mg/kg i.p., days 1-4): 264%
- increase in life span in mice ([2]; doses between 3.2-18 mg/kg i.p.): significant increase in life span
- activity against the leukemia P388 ([2]; i.p., days 1-4): quite active
- MIC [3]: 50 µg/mL (≈ 156 µM)
